Test results from PubChem BioAssay (NCI).
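Test compounds were applied to cells in 96-well plates for 48 hours at 5 doses. TGI: total growth inhibition.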

Experiments:
Test in all cases: inhibition of tumour cell growth, NCI panel, 48 h
CAKI-1 renal = test system: CAKI-1 renal
HCC-2998 colon = test system: HCC-2998 colon
KM12 colon = test system: KM12 colon
M14 melanoma = test system: M14 melanoma
NCI-H226 lung = test system: NCI-H226 lung
NCI-H23 lung = test system: NCI-H23 lung
NCI/ADR-RES ovarian = test system: NCI/ADR-RES ovarian
OVCAR-4 ovarian = test system: OVCAR-4 ovarian
RPMI-8226 leukemia = test system: RPMI-8226 leukemia
SF-539 CNS = test system: SF-539 CNS
SK-OV-3 ovarian = test system: SK-OV-3 ovarian
SNB-19 CNS = test system: SNB-19 CNS
UACC-257 melanoma = test system: UACC-257 melanoma

| SMILES | TGI (CAKI-1 renal) [µM] | TGI (HCC-2998 colon) [µM] | TGI (KM12 colon) [µM] | TGI (M14 melanoma) [µM] | TGI (NCI-H226 lung) [µM] | TGI (NCI-H23 lung) [µM] | TGI (NCI/ADR-RES ovarian) [µM] | TGI (OVCAR-4 ovarian) [µM] | TGI (RPMI-8226 leukemia) [µM] | TGI (SF-539 CNS) [µM] | TGI (SK-OV-3 ovarian) [µM] | TGI (SNB-19 CNS) [µM] | TGI (UACC-257 melanoma) [µM] |
| --- | --- | --- | --- | --- | --- | --- | --- | --- | --- | --- | --- | --- | --- |
| O=C(/C=C/c1ccccc1)CSc1ncn[nH]1 | > 100 | > 100 | > 100 | > 100 | > 100 | > 100 | > 100 | > 100 | > 100 | > 100 | > 100 | > 100 | > 100 |
| CCOC(=O)c1[nH]c(-c2[nH]c(-c3[nH]c(-c4[nH]c(C(=O)OCC)c(C)c4C(=O)OCC)c(C(=O)OCC)c3C)c(C)c2C(=O)OCC)c(C(=O)OCC)c1C | > 100 | > 100 | > 100 | > 100 | > 100 | > 100 | > 100 | > 100 | > 100 | > 100 | > 100 | > 100 | > 100 |
| COC(=O)CCC1=C(CC(=O)OC)C(C)(OC)N=C1NC(=O)OCc1ccccc1 (centres undefined) | > 100 | > 100 | > 100 | > 100 | > 100 | > 100 | > 100 | > 100 | > 100 | > 100 | > 100 | > 100 | > 100 |
| O=S(=O)(Nc1nc2ccccc2nc1Nc1ccc2ccccc2c1)c1ccccc1 | 99 | 29 | > 59.3 | > 57.2 | > 84.2 | 41.3 | > 100 | > 44.9 | > 47 | 45.8 | > 100 | > 100 | > 100 |
| COc1c(/C=C/C(C)(C)O)cc(C2CC(=O)c3c(O)cc(O)cc3O2)cc1CC=C(C)C (centres undefined) | > 50 | 8.66 | 20.7 | 16 | 17.8 | 18.3 | 32 | 24.6 | 28.4 | 17.4 | 17.6 | 18.6 | 15.9 |
| c1ccc(C(NCC2CCO2)(c2ccccc2)c2ccccc2)cc1 (centres undefined) | 55.2 | 30.6 | 28.8 | 32.1 | 26.6 | 30.9 | 28.9 | 30.2 | > 100 | 33.6 | 34.2 | 27.6 | 39.5 |
| O=[N+]([O-])c1ccc2c(c1)N([O-])C1(CCCCC1)[N+]2=O | 34.9 | 32.8 | 42.4 | 30.5 | 37.4 | 66.3 | 77.7 | 23.7 | 65 | 33.6 | 44.2 | > 100 | 29.4 |
| CN(C)CCNC(=O)c1ccc(NCCCN(C)CCCNc2ccc(C(=O)NCCN(C)C)c3[nH]c4ccccc4c(=O)c23)c2c(=O)c3ccccc3[nH]c12 | 2.59 | 0.177 | 0.627 | 1.46 | 0.609 | 0.315 | 16 | 0.247 | 0.419 | 2.24 | 0.427 | 0.419 | 1.26 |
| Clc1ccc(C(c2ccccc2Cl)C(Cl)Cl)cc1 (centres undefined) | 31.8 | 29.4 | 37.1 | 37.1 | 39.1 | 37.7 | 37.1 | 35.7 | 49 | 36.5 | 39.7 | 37.6 | 37.2 |
| CCN(CC)CCCNc1ccc2nc(C)n3c4ccc(O)cc4c(=O)c1c23 | 23.6 | 22.6 | 17.4 | 21.5 | 21.4 | 15.8 | 29.6 | 20.1 | 10.8 | 22.7 | 25.2 | 22 | 29 |
| O=C(/C=C/c1cccc(Oc2ccccc2)c1)NCc1ccc(C(=O)NCc2ccccc2)cc1 | > 100 | > 100 | > 100 | > 100 | 88.1 | > 100 | > 100 | > 100 | > 100 | > 100 | 29.8 | > 100 | > 100 |
| NC(N)=NC(N)=Nc1ccc(S(=O)(=O)O)cc1 | > 100 | > 100 | > 100 | > 100 | > 100 | > 100 | > 100 | > 100 | > 100 | > 100 | > 100 | > 100 | > 100 |
| Cn1c2ccccc2c2c3c(c4c5ccccc5n(C)c4c21)C(=O)NC3=O | > 100 | > 100 | > 100 | > 100 | > 100 | > 100 | > 100 | 28.6 | > 100 | 35.4 | > 100 | 49.6 | > 100 |
